{"source": "PubChem BioAssay AID1963970", "about": "(Molecular Pharmacology Branch, DTP, NCI, 2024);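 also: viability read 7 days after compound addition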", "tested_on": "931267-113-T-J1-PDC multicell spheroid viability", "assay": "Anticancer human tumor 931267-113-T-J1-PDC patient-derived colon adenocarcinoma cell line growth inhibition [PI3K]", "settings": "for IC50: curve of first compound; for viability, T/C: stronger effect = lower value", "outline": "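Viability of mixed-cell spheroids was determined after exposure to pairwise combinations, one partner being inavolisib, alpelisib, duvelisib or copanlisib. Highest tested concentration matched clinical Cmax where known and 10 microM where not, descending in half-log steps.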", "key": {"[1]": {"settings": "second compound 0.00316 µM, first compound 0.0316 µM"}, "[2]": {"settings": "second compound 0.00316 µM, first compound 0.1 µM"}, "[3]": {"settings": "second compound 0.00316 µM, first compound 0.316 µM"}, "[4]": {"settings": "second compound 0.00316 µM, first compound 1 µM"}, "[5]": {"settings": "second compound 0.00316 µM, first compound 3.16 µM"}, "[6]": {"settings": "second compound 0.00316 µM, first compound 10 µM"}, "[7]": {"settings": "second compound 0.01 µM, first compound 0.0316 µM"}, "[8]": {"settings": "second compound 0.01 µM, first compound 0.1 µM"}, "[9]": {"settings": "second compound 0.01 µM, first compound 0.316 µM"}, "[10]": {"settings": "second compound 0.01 µM, first compound 1 µM"}, "[11]": {"settings": "second compound 0.01 µM, first compound 3.16 µM"}, "[12]": {"settings": "second compound 0.01 µM, first compound 10 µM"}, "[13]": {"settings": "second compound 0.0316 µM, first compound 0.0316 µM"}, "[14]": {"settings": "second compound 0.0316 µM, first compound 0.1 µM"}, "[15]": {"settings": "second compound 0.0316 µM, first compound 0.316 µM"}, "[16]": {"settings": "second compound 0.0316 µM, first compound 1 µM"}, "[17]": {"settings": "second compound 0.0316 µM, first compound 3.16 µM"}, "[18]": {"settings": "second compound 0.0316 µM, first compound 10 µM"}, "[19]": {"settings": "second compound 0.1 µM, first compound 0.0316 µM"}, "[20]": {"settings": "second compound 0.1 µM, first compound 0.1 µM"}, "[21]": {"settings": "second compound 0.1 µM, first compound 0.316 µM"}, "[22]": {"settings": "second compound 0.1 µM, first compound 1 µM"}, "[23]": {"settings": "second compound 0.1 µM, first compound 3.16 µM"}, "[24]": {"settings": "second compound 0.1 µM, first compound 10 µM"}, "[25]": {"settings": "second compound 0.316 µM, first compound 0.0316 µM"}, "[26]": {"settings": "second compound 0.316 µM, first compound 0.1 µM"}, "[27]": {"settings": "second compound 0.316 µM, first compound 0.316 µM"}, "[28]": {"settings": "second compound 0.316 µM, first compound 1 µM"}, "[29]": {"settings": "second compound 0.316 µM, first compound 3.16 µM"}, "[30]": {"settings": "second compound 0.316 µM, first compound 10 µM"}, "[31]": {"settings": "second compound 1 µM, first compound 0.0316 µM"}, "[32]": {"settings": "second compound 1 µM, first compound 0.1 µM"}, "[33]": {"settings": "second compound 1 µM, first compound 0.316 µM"}, "[34]": {"settings": "second compound 1 µM, first compound 1 µM"}, "[35]": {"settings": "second compound 1 µM, first compound 3.16 µM"}, "[36]": {"settings": "second compound 1 µM, first compound 10 µM"}}}
{"smiles": "C=CC(=O)N1CCN(c2nc(=O)n(-c3c(C)ccnc3C(C)C)c3nc(-c4c(O)cccc4F)c(F)cc23)C(C)C1", "note": "(centres undefined) + COc1c(OCCCN2CCOCC2)ccc2c3n(c(=NC(=O)c4cnc(N)nc4)nc12)CCN3", "values": [{"measurement": "IC50", "setting": "second compound 0.00316 µM", "value": "> 10", "unit": "µM"}, {"measurement": "IC50", "setting": "second compound 0.01 µM", "value": "> 10", "unit": "µM"}, {"measurement": "IC50", "setting": "second compound 0.0316 µM", "value": "> 10", "unit": "µM"}, {"measurement": "IC50", "setting": "second compound 0.1 µM", "value": "> 10", "unit": "µM"}, {"measurement": "IC50", "setting": "second compound 0.316 µM", "value": "< 0.0316", "unit": "µM"}, {"measurement": "IC50", "setting": "second compound 1 µM", "value": "< 0.0316", "unit": "µM"}, {"measurement": "viability, T/C", "setting": "[1]", "value": 107, "unit": "%"}, {"measurement": "viability, T/C", "setting": "[2]", "value": 107, "unit": "%"}, {"measurement": "viability, T/C", "setting": "[3]", "value": 101, "unit": "%"}, {"measurement": "viability, T/C", "setting": "[4]", "value": 95.3, "unit": "%"}, {"measurement": "viability, T/C", "setting": "[5]", "value": 103, "unit": "%"}, {"measurement": "viability, T/C", "setting": "[6]", "value": 101, "unit": "%"}, {"measurement": "viability, T/C", "setting": "[7]", "value": 102, "unit": "%"}, {"measurement": "viability, T/C", "setting": "[8]", "value": 106, "unit": "%"}, {"measurement": "viability, T/C", "setting": "[9]", "value": 91.4, "unit": "%"}, {"measurement": "viability, T/C", "setting": "[10]", "value": 99.4, "unit": "%"}, {"measurement": "viability, T/C", "setting": "[11]", "value": 103, "unit": "%"}, {"measurement": "viability, T/C", "setting": "[12]", "value": 81.1, "unit": "%"}, {"measurement": "viability, T/C", "setting": "[13]", "value": 95.5, "unit": "%"}, {"measurement": "viability, T/C", "setting": "[14]", "value": 98.3, "unit": "%"}, {"measurement": "viability, T/C", "setting": "[15]", "value": 90.4, "unit": "%"}, {"measurement": "viability, T/C", "setting": "[16]", "value": 85.1, "unit": "%"}, {"measurement": "viability, T/C", "setting": "[17]", "value": 86.5, "unit": "%"}, {"measurement": "viability, T/C", "setting": "[18]", "value": 79.1, "unit": "%"}, {"measurement": "viability, T/C", "setting": "[19]", "value": 71.2, "unit": "%"}, {"measurement": "viability, T/C", "setting": "[20]", "value": 68.6, "unit": "%"}, {"measurement": "viability, T/C", "setting": "[21]", "value": 70.5, "unit": "%"}, {"measurement": "viability, T/C", "setting": "[22]", "value": 73.7, "unit": "%"}, {"measurement": "viability, T/C", "setting": "[23]", "value": 71.4, "unit": "%"}, {"measurement": "viability, T/C", "setting": "[24]", "value": 62.5, "unit": "%"}, {"measurement": "viability, T/C", "setting": "[25]", "value": 49.5, "unit": "%"}, {"measurement": "viability, T/C", "setting": "[26]", "value": 44.1, "unit": "%"}, {"measurement": "viability, T/C", "setting": "[27]", "value": 47.6, "unit": "%"}, {"measurement": "viability, T/C", "setting": "[28]", "value": 51.5, "unit": "%"}, {"measurement": "viability, T/C", "setting": "[29]", "value": 52.3, "unit": "%"}, {"measurement": "viability, T/C", "setting": "[30]", "value": 46.6, "unit": "%"}, {"measurement": "viability, T/C", "setting": "[31]", "value": 35.1, "unit": "%"}, {"measurement": "viability, T/C", "setting": "[32]", "value": 29.1, "unit": "%"}, {"measurement": "viability, T/C", "setting": "[33]", "value": 35.1, "unit": "%"}, {"measurement": "viability, T/C", "setting": "[34]", "value": 35.3, "unit": "%"}, {"measurement": "viability, T/C", "setting": "[35]", "value": 36.5, "unit": "%"}, {"measurement": "viability, T/C", "setting": "[36]", "value": 32.5, "unit": "%"}]}
{"smiles": "CC(Cn1ccc(-c2ccc(C#N)c(Cl)c2)n1)NC(=O)c1cc(C(C)O)[nH]n1", "note": "(centres undefined) + COc1c(OCCCN2CCOCC2)ccc2c3n(c(=NC(=O)c4cnc(N)nc4)nc12)CCN3", "values": [{"measurement": "IC50", "setting": "second compound 0.00316 µM", "value": "> 10", "unit": "µM"}, {"measurement": "IC50", "setting": "second compound 0.01 µM", "value": "> 10", "unit": "µM"}, {"measurement": "IC50", "setting": "second compound 0.0316 µM", "value": "> 10", "unit": "µM"}, {"measurement": "IC50", "setting": "second compound 0.1 µM", "value": "> 10", "unit": "µM"}, {"measurement": "IC50", "setting": "second compound 0.316 µM", "value": "< 0.0316", "unit": "µM"}, {"measurement": "IC50", "setting": "second compound 1 µM", "value": "< 0.0316", "unit": "µM"}, {"measurement": "viability, T/C", "setting": "[1]", "value": 95.4, "unit": "%"}, {"measurement": "viability, T/C", "setting": "[2]", "value": 96.7, "unit": "%"}, {"measurement": "viability, T/C", "setting": "[3]", "value": 104, "unit": "%"}, {"measurement": "viability, T/C", "setting": "[4]", "value": 99.4, "unit": "%"}, {"measurement": "viability, T/C", "setting": "[5]", "value": 99.8, "unit": "%"}, {"measurement": "viability, T/C", "setting": "[6]", "value": 104, "unit": "%"}, {"measurement": "viability, T/C", "setting": "[7]", "value": 89.7, "unit": "%"}, {"measurement": "viability, T/C", "setting": "[8]", "value": 102, "unit": "%"}, {"measurement": "viability, T/C", "setting": "[9]", "value": 97.8, "unit": "%"}, {"measurement": "viability, T/C", "setting": "[10]", "value": 100, "unit": "%"}, {"measurement": "viability, T/C", "setting": "[11]", "value": 92.5, "unit": "%"}, {"measurement": "viability, T/C", "setting": "[12]", "value": 85.9, "unit": "%"}, {"measurement": "viability, T/C", "setting": "[13]", "value": 91.8, "unit": "%"}, {"measurement": "viability, T/C", "setting": "[14]", "value": 96.4, "unit": "%"}, {"measurement": "viability, T/C", "setting": "[15]", "value": 78.6, "unit": "%"}, {"measurement": "viability, T/C", "setting": "[16]", "value": 82.5, "unit": "%"}, {"measurement": "viability, T/C", "setting": "[17]", "value": 78.4, "unit": "%"}, {"measurement": "viability, T/C", "setting": "[18]", "value": 70.5, "unit": "%"}, {"measurement": "viability, T/C", "setting": "[19]", "value": 68.8, "unit": "%"}, {"measurement": "viability, T/C", "setting": "[20]", "value": 72.5, "unit": "%"}, {"measurement": "viability, T/C", "setting": "[21]", "value": 64.9, "unit": "%"}, {"measurement": "viability, T/C", "setting": "[22]", "value": 65.4, "unit": "%"}, {"measurement": "viability, T/C", "setting": "[23]", "value": 65.3, "unit": "%"}, {"measurement": "viability, T/C", "setting": "[24]", "value": 63.1, "unit": "%"}, {"measurement": "viability, T/C", "setting": "[25]", "value": 47.5, "unit": "%"}, {"measurement": "viability, T/C", "setting": "[26]", "value": 44.1, "unit": "%"}, {"measurement": "viability, T/C", "setting": "[27]", "value": 45.3, "unit": "%"}, {"measurement": "viability, T/C", "setting": "[28]", "value": 42.4, "unit": "%"}, {"measurement": "viability, T/C", "setting": "[29]", "value": 47.7, "unit": "%"}, {"measurement": "viability, T/C", "setting": "[30]", "value": 37.9, "unit": "%"}, {"measurement": "viability, T/C", "setting": "[31]", "value": 32.5, "unit": "%"}, {"measurement": "viability, T/C", "setting": "[32]", "value": 34.4, "unit": "%"}, {"measurement": "viability, T/C", "setting": "[33]", "value": 30.9, "unit": "%"}, {"measurement": "viability, T/C", "setting": "[34]", "value": 32.5, "unit": "%"}, {"measurement": "viability, T/C", "setting": "[35]", "value": 34.5, "unit": "%"}, {"measurement": "viability, T/C", "setting": "[36]", "value": 29.5, "unit": "%"}]}
